Results on five compounds are retold here after patent US20250109156A1, “INDOLE-CONTAINING MACROCYCLIC COMPOUNDS AND USES THEREOF” (JIANGSU AOSAIKANG PHARMACEUTICAL CO., LTD., priority 2022, published 2025).

Common to all, as to assay type: biochemical
For one experiment, the target named is CDK7/CyclinH/MAT1 (Homo sapiens (Human), UniProt P50613). In words: In vitro CDK7/CyclinH/MAT1 enzyme activity assay (TR-FRET). Conditions: Ulight-MBP peptide, 25° C. 60 minutes. The protocol: Experimental Example 1: In Vitro CDK7/[…] Enzyme Activity Assay
CDK7/CyclinH/MAT1, sequence (P50613 whole entry): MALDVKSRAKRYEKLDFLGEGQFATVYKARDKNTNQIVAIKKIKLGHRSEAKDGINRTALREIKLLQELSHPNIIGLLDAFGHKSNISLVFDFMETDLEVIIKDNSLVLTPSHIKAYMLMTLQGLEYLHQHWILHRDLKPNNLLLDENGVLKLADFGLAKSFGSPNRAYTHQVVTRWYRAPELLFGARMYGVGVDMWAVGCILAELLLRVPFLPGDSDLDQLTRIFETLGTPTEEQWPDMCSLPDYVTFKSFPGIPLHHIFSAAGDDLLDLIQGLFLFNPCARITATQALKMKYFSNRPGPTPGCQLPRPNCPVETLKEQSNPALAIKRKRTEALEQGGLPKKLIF
CDK7/CyclinH/MAT1, sequence (P51946 whole entry partner): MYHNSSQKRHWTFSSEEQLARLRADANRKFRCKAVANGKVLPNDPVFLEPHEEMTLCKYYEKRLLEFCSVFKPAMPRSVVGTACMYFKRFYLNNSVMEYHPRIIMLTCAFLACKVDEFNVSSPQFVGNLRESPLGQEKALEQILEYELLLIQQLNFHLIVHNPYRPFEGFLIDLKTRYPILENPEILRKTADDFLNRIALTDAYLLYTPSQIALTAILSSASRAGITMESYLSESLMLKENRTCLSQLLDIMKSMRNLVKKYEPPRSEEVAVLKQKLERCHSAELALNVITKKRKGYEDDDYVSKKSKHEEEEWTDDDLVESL
CDK7/CyclinH/MAT1, sequence (P51948 whole entry partner): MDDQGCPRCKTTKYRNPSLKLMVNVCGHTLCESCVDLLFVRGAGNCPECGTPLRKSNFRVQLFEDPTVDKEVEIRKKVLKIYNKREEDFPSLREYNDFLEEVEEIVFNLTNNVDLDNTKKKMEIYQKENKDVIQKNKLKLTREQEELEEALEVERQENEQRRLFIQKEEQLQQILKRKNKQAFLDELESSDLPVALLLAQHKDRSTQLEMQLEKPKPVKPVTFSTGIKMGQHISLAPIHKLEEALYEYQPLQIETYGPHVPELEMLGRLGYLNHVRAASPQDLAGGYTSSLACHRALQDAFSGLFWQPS
CDK7/CyclinH/MAT1 was purchased from CARNA. Ulight-MBP peptide, Eu-MBP antibody, and 1× detection buffer were purchased from PerkinElmer. High-purity ATP was purchased from Promega. EDTA was purchased from Sigma. Nivo multimode microplate reader (PerkinElmer).
(§1) Preparation of kinase buffer: the kinase buffer containing 50 mM HEPES, 1 mM EDTA, 10 mM MgCl2, 0.01% Brij-35, pH 7.4.
(§2) 2.38 g of HEPES, 58 mg of EDTA, 406 mg of MgCl2, and 20 mg of Brij-35 were added to 200 mL of buffer, and the pH was adjusted to 7.4.
(§3) 100 μL of 1 M EDTA stock solution was mixed with 0.625 μL of 1× detection buffer and 1725 μL of distilled water to prepare the stop solution.
Enzyme, Ulight-MBP peptide, ATP, and inhibitors were diluted with the kinase buffer.
The Eu-MBP antibody was diluted to a concentration of 8 nM/L using detection buffer.
(§4) The compounds to be tested were 5-fold diluted with a multi-channel pipette to the 8th concentration, i.e., from 40 μM to 0.512 nM, with a final DMSO concentration of 4%. The experiment was set up in duplicate wells. 2.5 μL of each concentration gradient of the inhibitor was added to the microplate, followed by 5 μL of CDK7/CyclinH/MAT1 enzyme (5 ng), and 2.5 μL of a mixture of substrate and ATP (4 mM ATP, 50 nM Ulight-MBP peptide). At this point, the final concentration gradient of the compound was 10 μM diluted to 0.128 nM. The reaction system was reacted at 25° C. for 60 minutes. After the reaction, 5 μL of stop solution was added to each well, and the reaction was continued at 25° C. for 5 minutes. After stopping the reaction, 5 μL of Eu-MBP antibody dilution was added to each well, and the mixture was reacted at 25° C. for 60 minutes. Data were then collected using the PerkinElmer Nivo multimode microplate reader in TR-FRET mode (excitation wavelength: 320 nm, emission wavelength: 665 nm).
Using the equation (Sample−Min)/(Max−Min)*100% to convert the raw data into inhibition rate, the IC50 value may be obtained by curve fitting with four parameters (obtained by “log (inhibitor) vs. response—Variable slope” mode in GraphPad Prism). Table 1 provides the CDK7/CyclinH/MAT1 enzymatic inhibitory activity of the compounds of the present disclosure.

The target of the next experiment is CDK9-CyclinT1 (Homo sapiens (Human), UniProt P50750). In words: In vitro CDK9-CyclinT1 enzyme activity assay (TR-FRET). Conditions: Ulight-4E-BP1 peptide, 25° C. 120 minutes. The protocol: Experimental Example 3: In Vitro CDK9/[…] Enzyme Activity Assay
CDK9-CyclinT1, sequence (P50750 whole entry): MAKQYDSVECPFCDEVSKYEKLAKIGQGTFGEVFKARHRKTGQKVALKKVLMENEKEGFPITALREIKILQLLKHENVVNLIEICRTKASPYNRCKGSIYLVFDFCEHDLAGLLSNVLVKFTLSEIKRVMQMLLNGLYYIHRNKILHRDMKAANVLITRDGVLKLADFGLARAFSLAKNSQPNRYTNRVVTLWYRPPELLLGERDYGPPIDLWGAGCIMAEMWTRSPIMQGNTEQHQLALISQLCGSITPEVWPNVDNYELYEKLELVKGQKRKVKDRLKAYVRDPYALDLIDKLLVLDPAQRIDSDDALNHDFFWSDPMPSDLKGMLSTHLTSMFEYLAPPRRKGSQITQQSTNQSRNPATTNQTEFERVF
CDK9-CyclinT1, sequence (O60563 whole entry partner): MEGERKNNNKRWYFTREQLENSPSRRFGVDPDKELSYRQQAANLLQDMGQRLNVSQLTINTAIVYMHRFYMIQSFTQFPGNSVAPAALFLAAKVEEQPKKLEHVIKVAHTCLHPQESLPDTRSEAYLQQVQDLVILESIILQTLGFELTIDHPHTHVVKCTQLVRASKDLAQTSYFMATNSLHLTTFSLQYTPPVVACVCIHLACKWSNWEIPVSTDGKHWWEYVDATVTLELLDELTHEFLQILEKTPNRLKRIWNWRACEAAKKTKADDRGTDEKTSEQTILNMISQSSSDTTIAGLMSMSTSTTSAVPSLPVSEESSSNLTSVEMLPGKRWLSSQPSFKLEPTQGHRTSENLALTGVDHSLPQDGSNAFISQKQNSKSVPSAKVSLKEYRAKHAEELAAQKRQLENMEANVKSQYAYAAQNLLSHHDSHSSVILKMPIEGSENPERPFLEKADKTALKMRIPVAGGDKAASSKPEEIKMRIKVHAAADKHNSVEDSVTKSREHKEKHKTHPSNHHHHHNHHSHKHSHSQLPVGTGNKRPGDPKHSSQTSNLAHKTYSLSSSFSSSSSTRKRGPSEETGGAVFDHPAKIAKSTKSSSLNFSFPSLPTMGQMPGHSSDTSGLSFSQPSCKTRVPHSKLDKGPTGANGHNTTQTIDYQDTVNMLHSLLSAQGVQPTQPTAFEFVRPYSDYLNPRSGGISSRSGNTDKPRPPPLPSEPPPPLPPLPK
CDK9-CyclinT1 was purchased from CARNA. Ulight-4E-BP1 peptide, Eu-anti-phospho-tyrosine antibody, and 1× detection buffer were purchased from PerkinElmer. High-purity ATP was purchased from Promega. EDTA was purchased from Sigma. Nivo multimode microplate reader (PerkinElmer).
as §1, §2, §3
(§5) Enzyme, Ulight-4E-BP1 peptide, ATP, and inhibitors were diluted with the kinase buffer.
(§6) The Eu-anti-phospho-tyrosine antibody was diluted to a concentration of 8 nM/L using detection buffer.
The compounds to be tested were 4-fold diluted with a multi-channel pipette to the 8th concentration, i.e., from 400 μM to 24.4 nM, with a final DMSO concentration of 4%. The experiment was set up in duplicate wells. 2.5 μL of each concentration gradient of the inhibitor was added to the microplate, followed by 5 μL of CDK9-CyclinT1 enzyme (2 ng), and 2.5 μL of a mixture of substrate and ATP (8 mM ATP, 50 nM Ulight-4E-BP1 peptide). At this point, the final concentration gradient of the compound was 100 μM diluted to 6.1 nM. The reaction system was reacted at 25° C. for 120 minutes. After the reaction, 5 μL of stop solution was added to each well, and the reaction was continued at 25° C. for 5 minutes. After stopping the reaction, 5 μL of Eu-anti-phospho-tyrosine antibody dilution was added to each well, and the mixture was reacted at 25° C. for 60 minutes. Data were then collected using the PerkinElmer Nivo multimode microplate reader in TR-FRET mode (excitation wavelength: 320 nm, emission wavelength: 665 nm).
Using the equation (Sample−Min)/(Max−Min)*100% to convert the raw data into inhibition rate, the IC50 value may be obtained by curve fitting with four parameters (obtained by “log (inhibitor) vs. response—Variable slope” mode in GraphPad Prism). Table 1 provides the CDK9-CyclinT1 enzymatic inhibitory activity of the compounds of the present disclosure.

For another experiment, the target named is CDK2/CyclinE1 (Homo sapiens (Human), UniProt P24941). In words: In vitro CDK2/CyclinE1 enzyme activity assay (TR-FRET). The following applies: Ulight-4E-BP1 peptide, 25° C. 120 minutes. The protocol: Experimental Example 2: In Vitro CDK2/[…] Enzyme Activity Assay
CDK2/CyclinE1 was purchased from SignalChem. Ulight-4E-BP1 peptide, Eu-anti-phospho-tyrosine antibody, and 1× detection buffer were purchased from PerkinElmer. High-purity ATP was purchased from Promega. EDTA was purchased from Sigma. Nivo multimode microplate reader (PerkinElmer).
as §1, §2, §3, §5, §6
as §4, with “μL of CDK2/CyclinE1 enzyme (10” for “μL of CDK7/CyclinH/MAT1 enzyme (5”, “CDK2/CyclinE1 enzyme (10 ng), and” for “CDK7/CyclinH/MAT1 enzyme (5 ng), and”, “mM ATP, 100 nM Ulight-4E-BP1” for “mM ATP, 50 nM Ulight-MBP”, “100 nM Ulight-4E-BP1 peptide). At” for “50 nM Ulight-MBP peptide). At”, “C. for 120 minutes. After” for “C. for 60 minutes. After”, “μL of Eu-anti-phospho-tyrosine antibody dilution” for “μL of Eu-MBP antibody dilution”
Using the equation (Sample−Min)/(Max−Min)*100% to convert the raw data into inhibition rate, the IC50 value may be obtained by curve fitting with four parameters (obtained by “log (inhibitor) vs. response—Variable slope” mode in GraphPad Prism). Table 1 provides the CDK2/CyclinE1 enzymatic inhibitory activity of the compounds of the present disclosure.

For the compound `CN1CCCCN2CCC[C@@H](C2)Nc2ncc(C(F)(F)F)c(n2)-c2c[nH]c3c(P(C)(C)=O)c(ccc23)C1=O` [Formate of compound 1], the IC50 at CDK7/CyclinH/MAT1 came to 1 nM; at CDK9-CyclinT1, 723 nM; against CDK2/CyclinE1, 253 nM.

Take `CP(C)(=O)c1c2ccc3c(c[nH]c13)-c1nc(ncc1C(F)(F)F)N[C@H]1CCCN(CCCCCCO2)C1` [Compound 4]: the IC50 against CDK7/CyclinH/MAT1 is 1.6 nM; against CDK9-CyclinT1, more than 1000 nM; against CDK2/CyclinE1 it was more than 1000 nM.

On to `CN1CCCCN2CCCC[C@@H](C2)Nc2ncc(C(F)(F)F)c(n2)-c2c[nH]c3c(P(C)(C)=O)c(ccc23)C1=O` [Compound 3], for which the IC50 at CDK7/CyclinH/MAT1 was 1.1 nM; on CDK9-CyclinT1 it was more than 1000 nM; against CDK2/CyclinE1 it was more than 1000 nM.

Consider `CP(C)(=O)c1c2ccc3c(c[nH]c13)-c1nc(ncc1C(F)(F)F)N[C@H]1CCCCN(CCCCNC2=O)C1` [Compound 6], for which the IC50 is 1.4 nM against CDK7/CyclinH/MAT1, more than 1000 nM at CDK9-CyclinT1 and more than 1000 nM at CDK2/CyclinE1.

In the case of `CP(C)(=O)c1c2ccc3c(c[nH]c13)-c1nc(ncc1C(F)(F)F)N[C@H]1CCCN(CCCCNC2=O)C1` [Compound 5], the IC50 on CDK7/CyclinH/MAT1 was 1.2 nM; against CDK9-CyclinT1, more than 1000 nM; against CDK2/CyclinE1, 738 nM.
